The source of these data is patent US11718864B2, “Cells and method of cell culture” (PFIZER INC., priority 2015, dated 2023).

Holding throughout (format): cell-based, Chinese hamster
The test system of one data set is CHO cell line A. In words: Growth of CHO cell line A in Medium A supplemented with 2-methylbutyrate or isobutyrate. The conditions noted are these: at concentrations higher than 1 mM; monitored 5 days. The method, then: CHO cell line A producing a recombinant antibody were inoculated at low cell densities (0.1E6 cells/mL) in various conditions in triplicates in 6-well plate cultures. The working volume for each well on day 0 was 4 mL. […] The 6-well plates were incubated on a shaking platform in 36.5 C and 5% carbon dioxide. Cell growth in all the conditions was monitored for 5 days.

Data set [1] has as its system GS-CHO cells (Cell line A). The experiment in a line: Growth (viable cell density) of GS-CHO cells in Medium A spiked with putative inhibitor metabolites. The settings on record: single metabolite. The method, then:
GS-CHO cells producing a recombinant antibody were inoculated at low viable cell densities (0.1E6 cells/mL) in various conditions in 5 ml volume, 6-well plate cultures. […] The pH of the Medium A, spiked-in with any one of the nine metabolites or any combination of the nine metabolites, was adjusted to 7 before inoculating the cells (on day 0).
For indolelactate, the stock solution (500 mM) was prepared in DMSO. […] All the conditions were run in duplicates or triplicates. Growth of the cells in above described conditions was monitored for 5 or 6 days.

A further data set relates to BCAT1. The experiment in a line: Western blot of BCAT1 protein after transient miRNA transfection, CHO parental cell line. The conditions noted are these: CHO parental cell line transient transfections, vs untransfected and negative control miRNA. On the procedure: miRNA knockdown works by expressing small RNA sequences (approximately 20-25 bases) that are complimentary to a target gene sequence (e.g. BCAT1). The miRNA binds to the messenger RNA (mRNA) of the target gene forming a region of double stranded RNA. […] Micro RNA knockdown of BCAT1 was performed using the BLOCK-iT Inducible Pol II miR RNAi Expression Vector Kit with EmGFP (Invitrogen). Five miRNA oligonucleotide pairs (complementary top and bottom strand of BCAT1) were designed using an online tool called Block-iT RNAi Designer and the DNA oligonucleotides were prepared by Integrated DNA technologies. The oligonucleotide pairs were annealed and ligated into the pcDNA™6.2-GW/EmGFP-miR vector. The vectors (five of them) were sequence confirmed by WyzerBiosciences (Cambridge, Mass.). The five miRNA vectors or a negative control vector named pcDNA™6.2-GW/EmGFP-miR-neg (provided by Invitrogen with the kit) were transfected into CHO parental cell line or CHO cell line B using the GenePulser XCell eletroporator (BioRad) and were left to recover for two days. After two days, cells were either subjected to selection pressure by antibiotic (blasticidin, 10 ug/mL) for generation of stable cell pools (see Example 24), or cell lysates from the transfected cells (or untransfected cells) were prepared in M-PER protein extraction reagent (Thermo Fisher) supplemented with cOmplete, Mini, EDTA-free Protease Inhibitor Cocktail (Roche). The samples were analyzed by western blot using the Novex NuPage system (Thermo Fisher). The system provides polyacrylamide gels, sample loading buffer, sample reductant, gel running buffer, protein mass standard, nitrocellulose membrane, and chemiluminescence detection reagent. The blots were probed with a rabbit polyclonal anti-BCAT1 antibody (AbCam, Cat#ab110761) or a B-Actin antibody (AbCam, Cat#ab8227). The western blots were imaged using a BioRad ChemiDoc system and analyzed for levels of B-actin and BCAT1.
In general terms: A western blot detects proteins with antibodies after separation by electrophoresis.

Setting [2] is: at concentrations higher than 0.5 mM or 1 mM.

Turning to `CC(C)C(=O)O` [isobutyrate], in the data set on CHO cell line A, the cell growth entry was “suppressed”.

As to `O=C(O)c1c[nH]c2ccccc12` [Indolecarboxylic acid], the “effect on growth of cells” value in data set [1] (at concentrations of 1 mM or lower, growth monitored 5 or 6 days) is given as “potent negative effect on growth”.

Take `O=CO` [Formate]: the “effect on growth of cells” value in data set [1] (at concentrations 2 mM and beyond) was “negative effect on growth”.

With `CCC(O)C(=O)O` (stereo not drawn) [2-hydroxybutyric acid], the “effect on growth of cells” value in data set [1] (setting [2]) is listed as “Modest inhibition of growth”.

In the case of `O=C(O)C(O)Cc1ccc(O)cc1` (stereo not drawn) [3-(4-hydroxyphenyl)lactate], the “effect on growth of cells” value in data set [1] (setting [2]) is “Modest inhibition of growth”.

As for `O=C(O)[C@H](O)Cc1ccccc1` [L-phenyllactate], the “effect on growth of cells” value in data set [1] (at 1 mM concentration) is listed as “mild effect on growth”.

Turning to `N[C@@H](CCS)C(=O)O` [homocysteine], the “effect on growth of cells” value in data set [1] (setting [2]) is given as “Modest inhibition of growth”.

As to `O=C(O)C(O)Cc1c[nH]c2ccccc12` (stereo not drawn) [Indolelactate], the “effect on growth of cells” value in data set [1] (at concentrations of 3 mM or below, DMSO controls) was “little or no effect on growth”.

“miRNA Seq 4.1a: BCAT1 miRNA sequence CACGATGAATCTGTTCCTCTA expressed from pcDNA6.2-GW/EmGFP-miR vector (listed as Cricetulus griseus)”: the “BCAT1 protein level (western blot)” value in the data set with BCAT1 was “lower level of BCAT1 protein”.

On to “miRNA Seq 2.1a: BCAT1 miRNA sequence TCTGCTGTGAGGACCACTTTG expressed from pcDNA6.2-GW/EmGFP-miR vector (listed as Cricetulus griseus)”, for which the “BCAT1 protein level (western blot)” value with BCAT1 is listed as “lower level of BCAT1 protein”.

As to “miRNA Seq 3.1a: BCAT1 miRNA sequence AGTGGGCACGATGAATCTGTT expressed from pcDNA6.2-GW/EmGFP-miR vector (listed as Cricetulus griseus)”, the “BCAT1 protein level (western blot)” value with BCAT1 is reported as “lower level of BCAT1 protein”.

Take “miRNA Seq 5.1a: BCAT1 miRNA sequence CTTGGGCAAACTGACTGATAT expressed from pcDNA6.2-GW/EmGFP-miR vector (listed as Cricetulus griseus)”: in the data set on BCAT1, the “BCAT1 protein level (western blot)” value is listed as “lower level of BCAT1 protein”.
